Laboratory results taken from patent US12590950B2, “Methods for predicting ER-mediated DNA damage” (UNIVERSITY OF MASSACHUSETTS, priority 2019, dated 2026).

Experiments:
[1] = test system: ER; details: compared to BP3; cited from earlier work
[2] = test system: TFF1; experiment: RT-qPCR of estrogen-responsive gene TFF1 in T47D cells; assay type: cell-based, human; details: fulvestrant 1 μM with 10 nM E2, T47D
Description: RT-qPCR: RNA from T47D cells, MCF-7 Cells or flash-frozen 4th mammary gland was isolated with TRIzol (Thermofisher Scientific #15596018) and Direct-zol RNA MiniPrep Plus (Zymo Research #R2072). cDNA was prepared with Protoscript II First Strand cDNA Synthesis Kit (New England Biolabs #E6560S) and qPCR for TFF1, progesterone receptor (PGR) and Amphiregulin (AREG) was performed on CFX96 Real-Time System thermocycler (Bio-Rad) using primers in Table 1.

[3] = test system: T47D cells; experiment: γH2AX immunostaining (DNA damage) in T47D cells; assay type: cell-based, human
Description: Immunostaining: Cells were grown in clearing media for 48 h and plated on 20 mm coverslip in 12 well plates with a density of 2×10^5 cells/well. […] Cells were washed with 1×PBS, blocked in 2% BSA/PBS with 0.1% Triton-X 100 for 1 hr at room temperature (RT), incubated overnight with γH2AX antibody (Cell Signaling #9718 S) or ERα antibody (Santa Cruz Biotechnology #sc-8002) at 4° C. and 1 hour with secondary antibody. S9.6: Cells were fixed in ice-cold 100% methanol for 10 min at −20° C., permeabilized in 100% acetone for 1 min at RT, blocked for 30 min in saline sodium citrate pH 7 (SSC, 4×), 3% BSA, 0.1% Triton-X and incubated with S9.6 (Kerafast #ENH001) 2 hr at RT followed by 1 h with secondary antibody. If indicated, slides were treated with RNase H (NEB #M0297L) for 4 hr at 37° C. prior to incubation with primary antibody. Stained cells were mounted with Vectashield mounting medium containing DAPI (Vector Laboratories #H-1200). Slides were imaged at 60× (immersion oil) with Nikon A1 Spectral Confocal microscope. Analysis of γH2AX and S9.6 intensity per nucleus or foci per nucleus was calculated using Nikon analysis software, where DAPI was used as a mask for the nucleus.

SMILES	ER transactivation potential [1]	effect on transcriptional responses (TFF1) to E2 [2]	effect on E2-induced γH2AX intensity ([3]; fulvestrant 1 μM with 10 nM E2, T47D)	effect on γH2AX intensity in response to 5 μM BP3 and 5 μM PP ([3]; fulvestrant 1 μM, T47D)
O=C(c1ccccc1)c1ccc(O)cc1O [2,4-diOH-BP]	higher ER transactivation potential compared to BP3			
C[C@]12CC[C@@H]3c4ccc(O)cc4C[C@@H](CCCCCCCCC[S+]([O-])CCCC(F)(F)C(F)(F)F)[C@H]3[C@@H]1CC[C@@H]2O (stereo partly shown) [fulvestrant]		blocked	significantly reduced	inhibited
